Measured values: patent US12048693B2, “Substituted halo-quinoline derivatives, method of preparation and applications thereof” (Institut National de la Sante et de la Recherche Medicale …, priority 2018, dated 2024)

How the values were obtained:
PC3 [1] = experiment: Cancer cell proliferation assay; assay type: cell-based, human; conditions: 10 μM, normalized to DMSO-treated control
Procedure: (§1) Cancer Cell Proliferation Assay (A375, A549, PC3, HT-29, MiaPaca-2 and MCF-7)
(§2) The tested cancer cells are the following: human melanoma cells (A375), lung carcinoma cells (A549), prostate cancer cells (PC3), colon adenocarcinoma (HT29), pancreas carcinoma (MiaPaca 2) and breast carcinoma (MCF-7).
(§3) Cells were counted using a Malassez chamber. The average and standard deviation were calculated from triplicate experiments. Antiproliferative effects were evaluated by trypan blue exclusion assay. Briefly, cells were seeded into 12-well plate and grown in media supplemented with indicated compound at 1 or 10 μM for 48 h or 96 h. Cells were washed with PBS and detached by trypsinization, collected and colored by trypan blue.
Dead and living cells were counted and proliferation was calculated as follow: Proliferation (%)=[(treated cell number/untreated cells number)*100].

PC3 [2] = experiment: Cancer cell viability, trypan blue exclusion assay; assay type: cell-based; conditions: Homo sapiens, PC-3, normalized to DMSO-treated control
Procedure: as §1, §2, §3
(§4) As a comparison, cell viability was also determined and calculated as follow: Viability (%)=100−[(dead cell number/total cells)*100].

A549 = experiment: Cancer cell viability, trypan blue exclusion assay; assay type: cell-based; conditions: Homo sapiens, normalized to DMSO-treated control
Procedure: as §1, §2, §3, §4

MCF-7 = experiment: Cancer cell viability, trypan blue exclusion assay; assay type: cell-based; conditions: Homo sapiens, MCF7, normalized to DMSO-treated control
Procedure: as §1, §2, §3, §4

HT29 = experiment: Cancer cell viability, trypan blue exclusion assay; assay type: cell-based; conditions: Homo sapiens, HT-29, normalized to DMSO-treated control
Procedure: as §1, §2, §3, §4

MiaPaca-2 = experiment: Cancer cell viability, trypan blue exclusion assay; assay type: cell-based; conditions: Homo sapiens, MIA PaCa-2, normalized to DMSO-treated control
Procedure: as §1, §2, §3, §4

melanoma cell line A375 = experiment: In vitro dose response study on A375 proliferation; assay type: cell-based; conditions: Homo sapiens, A-375, 96 h, graded concentration
Procedure: The melanoma cell line A375 was treated during 96 h with graded concentration of compounds 42 and 43. At the end of the culture period, the cell concentration was determined.

A375 = experiment: Cancer cell viability, trypan blue exclusion assay; assay type: cell-based; conditions: Homo sapiens, A-375, normalized to DMSO-treated control
Procedure: as §2
Cells were counted using a Malassez chamber. The average and standard deviation were calculated from triplicate experiments. Antiproliferative effects were evaluated by trypan blue exclusion assay. […] Cells were washed with PBS and detached by trypsinization, collected and colored by trypan blue.
as §4

[3] = Melanocyte viability assay (MHN); assay type: cell-based; conditions: human, MHN melanocytes, 10 μM for 96 h, normalized to DMSO-treated control, read-out: Heathly Cell Viability MHN
Procedure: Melanocyte Viability Assay (MHN)
Cell viability effects were evaluated by trypan blue exclusion assay. Briefly, cells were seeded into 12-well plate and grown in media supplemented with indicated compound at 10 μM for 96 h. Cells were washed with PBS and detached by trypsinization, collected and colored by trypan blue. Dead and living cells were counted and cell viability was calculated as follow: Viability (%)=100−[(dead cell number/total cells)*100].

Row | SMILES | Cancer Cell Proliferation (PC3 [1]) | viability at 10 µM (PC3 [2]) | viability at 10 µM (A549) | viability at 10 µM (MCF-7) | viability at 10 µM (HT29) | viability at 10 µM (MiaPaca-2) | IC50 (melanoma cell line A375) | viability at 10 µM (A375) | viability at 96 h, 10 μM [3]
1 | COc1ccc(Nc2ccnc3cc(Cl)ccc23)cc1O [Compound 43, 7-chloro-N-(3-(hydroxy)-4-(methoxy)phenyl)quinolin-4-amine] | 55.0% | 94.6% | 99.8% | 99.6% | 85.8% | 97.6% | 1830 nM |  | 
2 | COCCOc1ccc(Nc2ccnc3cc(Cl)ccc23)cc1 [Compound 42, 7-chloro-N-(4-(2-methoxyethoxy)phenyl)quinolin-4-amine] |  | 98.9% | 99.7% | 97.2% | 97.3% | 100% | 420 nM | 99.3% | 99%
